Results taken from patent US20220267376A1, “P53 ACTIVATOR PEPTIDOMIMETIC MACROCYCLES” (Merck Sharp & Dohme Corp., priority 2019, published 2022).
Entries after “also recorded” stand apart in the source; their conditions may differ. Where two headings read alike, the source gives them in different places. Positions of bridges follow the written chain, without caps; N, C: chain ends. Non-standard residues stand in square brackets, D forms with d. Residues, ends and D or L forms follow the SMILES beside them. No end group written: not given here. dPhe(4-CF3) = N[C@H](Cc1ccc(C(F)(F)F)cc1)C(=O)O; dTrp(6-F) = N[C@H](Cc1c[nH]c2cc(F)ccc12)C(=O)O; S8 = C=CCCCCCC[C@](C)(N)C(=O)O; R5 = C=CCCC[C@@](C)(N)C(=O)O

Assays:
[1] = system: HCT116 p53 reporter cells; assay: p53 beta-lactamase reporter gene assay; assay type: cell-based; conditions: for p53 activation in reporter cells: 16 hours, up to 50 μM; for EC50: read-out: P53 activity EC50 (μM) (2% FBS) 16 H, HCT116 p53 reporter, 2% FBS, 16 H
Description: The cells were incubated overnight and followed by removal of cell growth media and replaced with Opti-MEM either containing 0% FBS or 10% FBS. […] Measurements were done using Envision multiplate reader (Perkin-Elmer).

[2] = Circular dichroism (CD) helicity of peptide in solution; assay type: physicochemical; conditions: 25° C.
Description: Prior to the experiment, 5 μl of the 10 mM stock peptide was mixed with 45 μl of 100% methanol, and dried for 2 hours in the SpeedVac concentrator (Thermo Scientific). The dried peptide was reconstituted in buffer, containing 1 mM HEPES pH 7.4 and 5% methanol, to a concentration of 1 mM. The peptide sample was placed in a quartz cuvette with a path length of 0.2 cm and the CD spectrum was recorded from 300 to 190 nm at 25° C., using the Chirascan-plus qCD machine (Applied Photophysics). […] An estimate of the secondary stmcture components of the peptide was carried out by converting the CD spectrum to mean residue ellipticity, before deconvoluting using the CDNN software (distributed by Applied Photophysics). All experiments were done in duplicates.

[3] = biological target: T1, MDM2 (Homo sapiens, UniProt Q00987); assay: MDM2 binding assay, fluorescence polarization (FP) competition
T1 construct: GST (N); His6 (N); made in house; host or cells: E. coli BL21 (DE3) Rosetta T1R

[4] = biological target: T2, MDM4 (Homo sapiens, UniProt O15151); assay: Fluorescence polarization (FP) binding to MDM4/MDMX
T2 construct: GST; made in house
T2 sequence (O15151 1-490): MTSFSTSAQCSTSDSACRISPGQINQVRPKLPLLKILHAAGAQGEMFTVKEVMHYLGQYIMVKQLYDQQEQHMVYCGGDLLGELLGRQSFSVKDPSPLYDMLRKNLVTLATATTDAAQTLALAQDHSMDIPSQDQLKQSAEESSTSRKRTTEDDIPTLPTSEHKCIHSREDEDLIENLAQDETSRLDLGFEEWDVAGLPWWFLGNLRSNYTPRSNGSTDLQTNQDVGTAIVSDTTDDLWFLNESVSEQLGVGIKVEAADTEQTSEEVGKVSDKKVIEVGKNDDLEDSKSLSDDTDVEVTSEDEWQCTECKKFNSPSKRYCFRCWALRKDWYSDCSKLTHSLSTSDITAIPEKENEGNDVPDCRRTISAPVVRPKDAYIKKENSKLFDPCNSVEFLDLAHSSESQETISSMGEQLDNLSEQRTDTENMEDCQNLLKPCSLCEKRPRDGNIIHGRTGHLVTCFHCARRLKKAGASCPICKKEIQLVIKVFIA

[5] = biological target: T1, MDM2; assay: Surface plasmon resonance (SPR) binding to MDM2; conditions: for Kd: MDM2
[6] = system: Jump-In™ T-REx™ CHO-K1 BLA cells; assay: Tetracycline beta-lactamase reporter gene assay (counterscreen); assay type: cell-based; conditions: for EC50: read-out: Counterscreen EC50 (μM) (2% FBS) 16 H, 2% FBS, 16 H
Description: Cells were seeded into a 384-well plate a density of 4000 cells per well. […] Measurements were carried out using Envision multiplate reader (Perkin-Elmer).

[7] = biological target: T3, human MDM2 protein (amino acids 1-125) (Homo sapiens, UniProt Q00987); assay: Isothermal titration calorimetry (ITC) with MDM2; assay type: binding; parameters: purified recombinant human MDM2 protein (amino acids 1-125); GST (N); His6 (N); TEV cleavage site ENLYFQG (N); made in house; host or cells: E. coli BL21 (DE3) Rosetta T1R; conditions: for ITC TΔS / ITC ΔG: binding to MDM2; for ITC ΔH: enthalpy of binding to MDM2
Target sequence in this assay (Q00987 1-125): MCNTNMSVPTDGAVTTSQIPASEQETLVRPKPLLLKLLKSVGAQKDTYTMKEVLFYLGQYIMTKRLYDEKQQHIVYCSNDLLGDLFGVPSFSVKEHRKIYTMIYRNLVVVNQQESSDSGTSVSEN
Description: All experiments were performed in duplicates using the MicroCal PEAQ-ITC Automated system. […] For peptides that are insoluble at high concentrations, reverse ITC was carded out by titrating 200 μM of MDM2 protein into 20 μM of peptide. […] Data analysis was carried out using the MicroCal PEAQ-ITC Analysis Software.

[8] = biological target: T3, human MDM2 protein (amino acids 1-125); assay: cell-based or functional assay
Target sequence in this assay (Q00987 1-125 limits assumed): as the sequence (Q00987 1-125) above

Molecule | p53 activation in reporter cells [1] | CD (% helicity) [2] [%] | binding to MDM2 in FP assay [3] | binding to MDMX in FP assay [4] | Kd ([5]; Table 1) [nM] | Kd ([5]; Table 2) [nM] | EC50 [6] [µM] | ITC TΔS [7] [kcal/mol] | ITC ΔG [7] [kcal/mol] | ITC ΔH [7] [kcal/mol] | further results
CC(C)C[C@@H](NC(=O)[C@@H](CC(C)C)NC(=O)[C@@H](CCCCN)NC(=O)[C@@H](CCC(=O)O)NC(=O)[C@@H](Cc1ccc(C(F)(F)F)cc1)NC(=O)[C@@]1(C)CCC/C=C\CCC[C@@](C)(NC(=O)[C@H](N)[C@H](C)O)C(=O)N[C@H](Cc2c[nH]c3cc(F)ccc23)C(=O)N[C@H](Cc2ccc(O)cc2)C(=O)N[C@H](C)C(=O)N1)C(=O)N[C@H](CCCNC(=N)N)C(N)=O [^DPMI-δ (2-6)] (H-[dT][R5][dTrp(6-F)][dY][dA][R5][dPhe(4-CF3)][dE][dK][dL][dL][dR]-NH2; staple (Z) 2-6) | unable to activate cellular p53 | 46.7 | no binding | no binding | > 500 | > 500 | 13.9 | – | – | – | binding to MDM2 in SPR [5]: non-binder
CC(C)C[C@@H](NC(=O)[C@@]1(C)CCC/C=C\CCC[C@@](C)(NC(=O)[C@@H](C)NC(=O)[C@@H](Cc2ccc(O)cc2)NC(=O)[C@@H](Cc2c[nH]c3cc(F)ccc23)NC(=O)[C@@H](C)NC(=O)[C@H](N)[C@H](C)O)C(=O)N[C@H](Cc2ccc(C(F)(F)F)cc2)C(=O)N[C@H](CCC(=O)O)C(=O)N[C@H](CCCCN)C(=O)N1)C(=O)N[C@H](CCCNC(=N)N)C(N)=O [^DPMI-δ (6-10)] | – | 39.9 | no binding; also recorded: non-binder | no binding | 59 | – | – | -1.86 | -11.2 | -9.35 | –
CC(C)C[C@@H](NC(=O)[C@@H](CC(C)C)NC(=O)[C@@H](CCCCN)NC(=O)[C@@H](CCC(=O)O)NC(=O)[C@@H](Cc1ccc(C(F)(F)F)cc1)NC(=O)[C@@H](CC(N)=O)NC(=O)[C@@H](C)NC(=O)[C@@H](Cc1ccc(O)cc1)NC(=O)[C@@H](Cc1c[nH]c2cc(F)ccc12)NC(=O)[C@@H](C)NC(=O)[C@H](N)[C@H](C)O)C(=O)N[C@H](CCCNC(=N)N)C(N)=O [^DPMI-δ, reference compound] | no p53 activation | – | – | – | – | – | – | – | – | – | –
CC(C)C[C@@H](NC(=O)[C@@H](CC(C)C)NC(=O)[C@@H](CCCCN)NC(=O)[C@@H](CCC(=O)O)NC(=O)[C@@H](Cc1ccc(C(F)(F)F)cc1)NC(=O)[C@@H](CC(N)=O)NC(=O)[C@@]1(C)CCCCCC/C=C\CCC[C@@](C)(N)C(=O)N[C@H](C)C(=O)N[C@H](Cc2c[nH]c3cc(F)ccc23)C(=O)N[C@H](Cc2ccc(O)cc2)C(=O)N1)C(=O)N[C@H](CCCNC(=N)N)C(N)=O [^DPMI-δ (1-5)] | – | 24.7 | – | – | < 1 | < 1 | ≥ 50 | 3.04 | -11.6 | -15.8 | EC50 [1]: 13.7 µM; EC50 ([1]; listed as DPMI-δ(1-5)): 17.5 µM; Kd ([3]; apparent Kd, competition with FAM-labeled 12/1 peptide): 13.2 nM; Kd ([4]; FP assay, MDM4 (MDMX)): 4.5 nM; counterscreen activity [6]: didn't exhibit activity
[dT][S8][dTrp(6-F)][dY][dA][dN][dPhe(4-CF3)][dE][R5][dL][dL][dR]-NH2 (staple 2-9) [^DPMI-δ(2-9)] | – | – | – | – | – | – | – | – | – | – | P53 activity EC50 (µM) (2% FBS) 16 H [8]: > 50 µM
